According to PMC8555866 (Nature chemical biology, 2021):
Where a name gives a salt, the structure may show the parent alone.

Legend:
[1] = molecular target: wildtype Keap1 (tag-free) (Homo sapiens, UniProt Q14145); experiment: Keap1 tracer saturation binding with wildtype Keap1; conditions: fixed Cora-1-KL9 (5 nM) and wildtype Keap1, one-site binding model
Keap1 (tag-free) [2] = molecular target: T1, Keap1 (tag-free) (Homo sapiens, UniProt Q14145); experiment: Assay-1: inhibitor dose response, full length Keap1; assay type: binding; conditions: 5 nM Keap1, 3.5 nM each KL9 tracer, 4 h
T1 sequence (Q14145 whole entry): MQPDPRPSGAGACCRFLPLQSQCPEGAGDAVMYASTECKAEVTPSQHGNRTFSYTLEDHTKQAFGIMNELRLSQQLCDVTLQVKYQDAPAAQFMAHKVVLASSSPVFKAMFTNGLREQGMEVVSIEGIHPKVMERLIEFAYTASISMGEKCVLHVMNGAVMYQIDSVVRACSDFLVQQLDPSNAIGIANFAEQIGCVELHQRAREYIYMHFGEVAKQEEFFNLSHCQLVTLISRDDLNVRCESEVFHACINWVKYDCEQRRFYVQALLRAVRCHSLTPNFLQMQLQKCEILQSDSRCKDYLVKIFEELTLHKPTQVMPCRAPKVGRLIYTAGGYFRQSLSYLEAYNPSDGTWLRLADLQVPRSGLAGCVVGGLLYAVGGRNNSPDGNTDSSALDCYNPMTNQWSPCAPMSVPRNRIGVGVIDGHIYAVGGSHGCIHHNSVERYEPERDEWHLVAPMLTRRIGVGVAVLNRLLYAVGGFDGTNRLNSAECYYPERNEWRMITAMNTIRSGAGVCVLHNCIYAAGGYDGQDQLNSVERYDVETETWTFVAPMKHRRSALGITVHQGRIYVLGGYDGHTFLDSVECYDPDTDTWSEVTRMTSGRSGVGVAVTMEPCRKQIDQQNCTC

Keap1 (tag-free) [3] = molecular target: T1, Keap1 (tag-free); experiment: Assay-2: inhibitor dose response, full length Keap1; assay type: binding; conditions: for activity in Assay-2 (in words): 5 nM Cora-1-KL9, 150 nM CDDO-FITC, 5 nM Keap1
[4] = molecular target: HDAC1-HT in HEK293T cells (Homo sapiens, UniProt Q13547); assay type: cell-based; conditions: Cora-2-Halo labeled HEK293T cells expressing HDAC1-HT, 4 h at 37°C
Sequence of HDAC1-HT in HEK293T cells (Q13547 whole entry): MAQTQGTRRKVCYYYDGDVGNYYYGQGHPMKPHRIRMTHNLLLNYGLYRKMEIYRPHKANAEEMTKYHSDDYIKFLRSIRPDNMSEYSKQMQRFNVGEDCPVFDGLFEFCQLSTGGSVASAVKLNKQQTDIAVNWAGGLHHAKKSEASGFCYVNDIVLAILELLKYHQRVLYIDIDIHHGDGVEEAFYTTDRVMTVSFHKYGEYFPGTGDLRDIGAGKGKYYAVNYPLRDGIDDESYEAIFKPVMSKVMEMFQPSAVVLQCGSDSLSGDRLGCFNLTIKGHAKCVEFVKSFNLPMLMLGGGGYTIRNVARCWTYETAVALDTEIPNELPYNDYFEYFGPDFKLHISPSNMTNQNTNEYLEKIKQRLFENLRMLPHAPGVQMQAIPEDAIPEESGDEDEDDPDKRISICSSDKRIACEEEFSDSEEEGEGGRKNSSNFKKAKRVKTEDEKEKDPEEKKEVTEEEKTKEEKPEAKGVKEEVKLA

Sequence of wildtype Keap1 (tag-free) (Q14145 whole entry): as the sequence (Q14145 whole entry) above

## CC1(C)CC[C@]2(C(=O)NCCCOCCOCCOCCCNC(=S)Nc3ccc(-c4c5ccc(=O)cc-5oc5cc(O)ccc45)c(C(=O)O)c3)CC[C@]3(C)[C@H](C(=O)C=C4[C@@]5(C)C=C(C#N)C(=O)C(C)(C)[C@@H]5CC[C@]43C)[C@@H]2C1 [CDDO-FITC]
[1]
  Kd: 164 ± 37.1 nM

## Cc1sc2c(c1C)C(c1ccc(Cl)cc1)=NC(CC(=O)NCCCOCCOCCOCCCNC(=O)[C@]13CCC(C)(C)C[C@H]1[C@H]1C(=O)C=C4[C@@]5(C)C=C(C#N)C(=O)C(C)(C)[C@@H]5CC[C@@]4(C)[C@]1(C)CC3)c1nnc(C)n1-2 (some centres unmarked) [CDDO-JQ1]
Keap1 (tag-free) [2]
  affinity in Assay-1 (no appreciable affinity below): > 100 µM
Keap1 (tag-free) [3]; Assay-2
  fold less potent than CDDO: > 500 fold

## COC(=O)[C@]12CCC(C)(C)C[C@H]1[C@H]1C(=O)C=C3[C@@]4(C)C=C(C#N)C(=O)C(C)(C)[C@@H]4CC[C@@]3(C)[C@]1(C)CC2 [CDDO-Me, bardoxolone methyl]
Keap1 (tag-free) [2]
  affinity in Assay-1 (no appreciable affinity below): > 100 µM
Keap1 (tag-free) [3]
  activity in Assay-2 (in words): most potent competitors of CDDO-FITC

## CC1(C)CC[C@]2(C(=O)O)CC[C@]3(C)[C@H](C(=O)C=C4[C@@]5(C)C=C(C#N)C(=O)C(C)(C)[C@@H]5CC[C@]43C)[C@@H]2C1 [CDDO]
Keap1 (tag-free) [2]
  activity in Assay-1 (in words): micromolar activity
Keap1 (tag-free) [3]
  activity in Assay-2 (in words): most potent competitors of CDDO-FITC

## COC1=CC(=O)C(O)=C/C1=C\C=C\c1ccccc1 [OBT, obtusaquinone]
Keap1 (tag-free) [2]
  activity in Assay-1 (in words): micromolar activity

## O=C(CCCCCCC(=O)Nc1ccc(CNC(=O)c2ccc(C(=O)O)c(C3=c4cc5c6c(c4Oc4c3cc3c7c4CCCN7CCCC3)CCC[N+]=6CCCC5)c2)cc1)NO [SAHA-NCT]
[4]
  TR-FRET signal in live cells / cell permeability (in words): specific and ligand concentration-dependent TR-FRET signal

## CC1=C(O)C(=O)C=C2C1=CC=C1[C@@]2(C)CC[C@@]2(C)[C@@H]3C[C@](C)(C(=O)O)CC[C@]3(C)CC[C@]12C [celastrol]
Keap1 (tag-free) [2]
  activity in Assay-1 (in words): micromolar activity

## COC(=O)/C=C/C(=O)OC [dimethyl fumarate]
Keap1 (tag-free) [2]
  affinity in Assay-1 (no appreciable affinity below): > 100 µM
